From PMC8393326, “A Thermodynamic Analysis of the Binding Specificity between Four Human PDZ Domains and Eight Host, Viral and Designed Ligands” (Biomolecules, 2021)
Where two headings read alike, the source gives them in different places. Where no end group is shown, it is not given here.

Experiments:
[1] = target: Erbin-PDZ; conditions: ERBB2 C-terminal tail of 9 residues; cited from earlier work
Description: Again, no class II or III peptides were able to bind PSD95-PDZ3 either. […] Instead, the striking resu ...

[2] = target: T1, PSD95-PDZ2 (Homo sapiens, UniProt P78352); experiment: ITC titration of PSD95-PDZ2 with peptides; assay type: binding; set-up: key to interaction or not with PSD95 PDZ2: The tick (✓) and the cross (✕) signs mean whether there is interaction or not, respectively, as demonstrated in this study; The tick (✓) and the cross (✕) signs mean whether there is interaction or not, respectively, as demonstrated in this study; conditions: for Kd: ITC, 25 °C, 50 mM potassium phosphate pH 7.5, protein 70 μM in cell, peptide 900 μM, single-site model, n 0.8 to 1.1; for interaction or not with PSD95 PDZ2: Figure 1 summary, ITC, and DSC where ITC showed no binding
T1 construct: PSD95-PDZ2 (residues 155–249, according to PSD95 numbering); made in house; host or cells: Escherichia coli BL21-DE3
Experimental: (§1) The DNA encoding the sequences of PSD95-PDZ2 (residues 155–249, according to PSD95 numbering), PSD95-PDZ3 (residues 302–415, according to PSD95 numbering), nNOS-PDZ (residues 1–127, in nNOS numbering) and Erbin-PDZ (given generously by Prof. Sachdev Sidhu, University of Toronto, Toronto, ON, Canada), were sub-cloned into pBAT4 vector (EMBL Core Purification Facility, Heidelberg, Germany) and expressed in Escherichia coli BL21-DE3 cells. Protein purification was carried out as previously described. Briefly, cultures were over-expressed overnight and centrifuged. After cell lysis with a French press, the lysates were centrifuged and the pH of the supernatant was lowered down to a pH of 3 with diluted HCl. Upon centrifugation, ammonium sulfate was added to the samples, which were then injected into an AKTA FPLC for preparative size exclusion chromatography. Roughly 15 milligrams of protein per liter of LB culture were obtained and purity was determined by SDS-Page electrophoresis. MALDI-TOF spectrometry, performed at the Scientific Instrumentation Services (CIC) of the University of Granada (Granada, Spain), confirmed the molecular mass for each PDZ domain. Extinction coefficients, determined as described, were used to calculate sample concentration. Experimental samples were always prepared by extensive dialysis against 50 mM potassium phosphate buffer at a pH of 7.5 and 4 °C.
(§2) Calorimetric titrations of the PDZ domains with the peptides were undertaken at 25 °C on an ITC-200 titration microcalorimeter (Microcal Inc., Northampton, MA, USA), as previously described. Protein concentrations in the cell were routinely 70 μM and peptides solutions were prepared using the dialysis buffer to have a final concentration of 900 μM. Titrations were all made by injecting 2 μL volumes of ligand solution, with a final number of 19 injections per experiment. As a control and reference, independent experiments were carried out with only buffer in the calorimeter cell with the same ligand solutions to determine the corresponding heat dilution. The dilution isotherms were then subtracted from that obtained for protein titration. The binding stoichiometry, n, the dissociation constant, Kd and the corresponding enthalpy change, ΔH, were determined by fitting the resulting titration isotherm to a model considering a single ligand binding site using ORIGIN 7.0 (OriginLab Corporation, Northampton, MA, USA, 2002).
(§3) We performed ITC experiments at 25 °C between all the selected PDZ domains and peptides. For the sake of comparison, the experiments were all conducted in the same buffer conditions, 50 mM potassium phosphate and pH of 7.5, which presents the advantage of having an insignificant protonation heat, meaning that the experimentally determined enthalpy changes should just account for the net heat of reaction. A table summarizing all interactions is shown in Figure 1, whilst we have just included the successful experiments graphs, both in Figure 2 and in the SI (Figure S1).

[3] = target: T2, PSD95-PDZ3 (Homo sapiens, UniProt P78352); experiment: ITC titration of PSD95-PDZ3 with peptides; assay type: binding; set-up: key to interaction or not with PSD95 PDZ3: The tick (✓) and the cross (✕) signs mean whether there is interaction or not, respectively, as demonstrated in this study; The tick (✓) and the cross (✕) signs mean whether there is interaction or not, respectively, as demonstrated in this study; conditions: for Kd: ITC, 25 °C, 50 mM potassium phosphate pH 7.5, protein 70 μM in cell, peptide 900 μM, single-site model, n 0.8 to 1.1; for interaction or not with PSD95 PDZ3: Figure 1 summary, ITC, and DSC where ITC showed no binding
T2 construct: PSD95-PDZ3 (residues 302–415, according to PSD95 numbering); made in house; host or cells: Escherichia coli BL21-DE3
Experimental: as §1, §2, §3

[4] = target: T3, Erbin-PDZ (Homo sapiens, UniProt Q96RT1); experiment: ITC titration of Erbin-PDZ with peptides; assay type: binding; set-up: key to interaction or not with Erbin PDZ: The tick (✓) and the cross (✕) signs mean whether there is interaction or not, respectively, as demonstrated in this study; The tick (✓) and the cross (✕) signs mean whether there is interaction or not, respectively, as demonstrated in this study; conditions: for Kd: 50 mM potassium phosphate pH 7.5, protein 70 μM in cell, peptide 900 μM, single-site model, n 0.8 to 1.1; for interaction or not with Erbin PDZ: Figure 1 summary, ITC, and DSC where ITC showed no binding
T3 construct: made in house; host or cells: Escherichia coli BL21-DE3
Experimental: as §1, §2, §3

[5] = system: nNOS-PDZ; experiment: DSC of nNOS-PDZ with and without peptides (Tm displacement); assay type: binding, human; set-up: key to interaction or not with nNOS PDZ: The tick (✓) and the cross (✕) signs mean whether there is interaction or not, respectively, as demonstrated in this study; The tick (✓) and the cross (✕) signs mean whether there is interaction or not, respectively, as demonstrated in this study; conditions: for ΔTm of nNOS-PDZ: DSC, PDZ:peptide 1:3, 50 mM potassium phosphate pH 7.5, nNOS-PDZ alone 55 °C; for interaction or not with nNOS PDZ: Figure 1 summary, no binding by ITC, interaction shown by DSC
Experimental: (§4) Experiments were carried out in a VP-DSC instrument from Microcal INC. as described elsewhere. The buffer conditions were the same as with ITC experiments, 50 mM buffer potassium phosphate at a pH of 7.5. For experiments including the peptides, the final concentration ratio was 1:3 (protein:peptide). Final data were obtained after treatment with ORIGIN 7.0 (OriginLab Corporation, Northampton, MA, USA, 2002).
(§5) The final ratio of PDZ:peptide was always 1:3. DSC is also a calorimetric technique but that allows finding a more subtle binding, weaker than that from ITC [33]. Undoubtedly, ITC presents greater advantages, since it gives an exhaustive characterization of the binding interaction, granting the whole thermodynamics of the system; nevertheless, if the interactions are out of the ITC range, usually when they are weak (Kd values in the mM range), it is not sensitive enough to detect binding. By contrast, DSC can detect weak binding by a displacement of the melting temperature (Tm) due to the stabilization that occurs upon binding. Essentially, when a ligand is bound to the protein, energy is needed to decouple the interacting pair before protein denaturalization. In this way, the Tm is increased and the ΔTm is proportional to the interaction energy.

[6] = target: T2, PSD95-PDZ3; conditions: cited from earlier work
Description: Unfortunately, the calorimetric traces for nNOS-PDZ are highly irreversible, which prevents an analysis that would potentially yield a Kd value. Instead, we can approximately estimate a Kd range based on previous cases in PDZ binding. We have taken as a reference two PDZ-peptide interactions. Firstly, the binding of PSD95-PDZ3 with the peptide KKETAV formerly described by us. We had previously performed both ITC and DSC with PSD95-PDZ3 and KKETAV. The concentrations ...

[7] = target: T1, PSD95-PDZ2; experiment: DSC of PSD95-PDZ2 with and without peptides; assay type: binding; conditions: PDZ:peptide 1:3, 50 mM potassium phosphate pH 7.5 (Figure S2)
Experimental: as §4, §5

T3 sequence (Q96RT1 1321-1410 limits assumed): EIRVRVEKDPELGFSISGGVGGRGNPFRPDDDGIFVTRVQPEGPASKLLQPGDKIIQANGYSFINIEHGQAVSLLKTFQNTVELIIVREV
T1 sequence (P78352 155-249): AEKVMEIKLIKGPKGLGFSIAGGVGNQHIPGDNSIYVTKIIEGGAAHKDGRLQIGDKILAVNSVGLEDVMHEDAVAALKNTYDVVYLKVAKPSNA
T2 sequence (P78352 302-415): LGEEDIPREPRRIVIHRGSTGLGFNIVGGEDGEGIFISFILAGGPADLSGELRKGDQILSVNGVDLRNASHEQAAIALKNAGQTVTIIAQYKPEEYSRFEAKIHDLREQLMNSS

| Substance | Kd [2] | Kd ([4]; ITC, 25 °C) | interaction or not with PSD95 PDZ2 [2] | interaction or not with PSD95 PDZ3 [3] | interaction or not with Erbin PDZ [4] | ΔTm of nNOS-PDZ [5] | interaction or not with nNOS PDZ [5] | further results |
| --- | --- | --- | --- | --- | --- | --- | --- | --- |
| EYLGLDVPV [ERBB2 C-terminal tail comprising 9 residues, literature value] | – | – | – | – | – | – | – | Kd [1]: ~50 µM |
| FRETEV [HTLV1 Tax] | 1.5 ± 0.1 µM | 7.8 ± 0.9 µM | – | – | – | – | – | Kd [3]: 3.8 ± 0.2 µM |
| GLDVPV (UniProt P04626 1250-1255, looked up, fragment) [ERBB2, six-residue C-terminal peptide of host receptor tyrosine kinase ERBB2, class II PDZ ligand] | – | – | ✕ | ✕ | ✕ | 2 °C | ✓ | binding to Erbin-PDZ by ITC ([4]; ITC, 25 °C, 50 mM potassium phosphate pH 7.5): lack of binding |
| IAESSV [HTLV3 Tax] | 20 ± 3.8 µM | 23 ± 9 µM | – | – | – | – | – | Kd [3]: 43 ± 10 µM |
| KIATLV [AdV E4 ORF1] | 11.5 ± 0.5 µM | – | – | – | – | – | – | – |
| KKETAV | – | – | – | – | – | – | – | ΔTm of PSD95-PDZ3 ([6]; DSC, PDZ:peptide 1:3): about 9 °C; Kd ([6]; ITC, same concentrations as this study): 1.5 µM |
| LLDEIAV [CAPON, C-terminus of CAPON, cytoplasmic protein; class II peptide, cognate nNOS partner] | – | – | ✕ | ✕ | ✕ | 3 °C | ✓ | – |
| TGWETWV [Erbin PDZ binder] | 5.7 ± 0.2 µM | 0.24 ± 0.08 µM | – | – | – | – | – | ΔTm of PSD95-PDZ2 [7]: around 6 °C |
| VVKVDSV [MelR, C-terminal region of a melatonin receptor] | – | – | ✕ | ✕ | ✕ | 3 °C | ✓ | – |
